According to US20120093947A1, “METHOD OF TREATING REACTIVE AIRWAY DISEASE” (UNITED STATES DEPARTMENT OF VETERANS AFFAIRS, priority 2009, published 2012):
Read-outs that look alike come from different tables or passages of the source.

Experiments:
LPO [1] = target: T1, LPO (Bos taurus, UniProt P80025); assay: Nitration of salbutamol by LPO/H2O2/NO2−, A410; assay type: biochemical, bovine; conditions: for Nitrophenols, (%) LPO: […] NaNO2, 4 mM H2O2, 65 nM LPO, pH 7.0, 10 min, ΔA410 versus control
T1 construct: Lactoperoxidase (LPO) from bovine milk (EC 1.11.1.7); purchased Sigma-Aldrich Co. (St. Louis, Mo.); host or cells: bovine milk (natural source)
Method: Spectrophotometric Measurements. Spectra are measured using an Agilent diode array spectrophotometer model 8453 (Agilent Technologies, Inc., Santa Clara, Calif.). Nitration of salbutamol is studied by measuring absorption spectra at designated time points following the start of the reaction. Samples are prepared in 100 mM phosphate buffers (pH 7.0). All buffers contained DTPA (100 μM) or are pretreated with Chelex-100 before use, and measurements are performed at ambient temperature of 20° C. Typically, the reaction is started by the addition of a small aliquot of H2O2 or the desired peroxidase. Time course measurements are carried out following changes in absorbance at 410 nm in 30 second intervals versus absorbance at 800 nm, where none of the compounds absorb.
Ascorbate (AscH^−) is an effective natural antioxidant protecting airways from oxidative injury. Cross et al., (1994) Environ. Health Perspect. 102 (suppl. 10):185-191. Its concentration in the respiratory tract lining fluid is estimated to be near 100 μM (Id.). We examine the effect of AscH^− on nitration of 100 μM salbutamol by 67 nM LPO, 4 mM H2O2, and 3.5 mM of NaNO2 by measuring absorption at 410 nm. […] The duration of the lag period depends on AscH^− concentration. […] See, e.g., Reszka et al. (1999) Free Radic. Biol. & Med. 26:669-678.
As noted earlier, methimazole is an antithyroid drug, an effective inhibitor of LPO activity. 100 μM of salbutamol is reacted with 73 nM LPO, 3.5 mM NaNO2, and 4 mM H2O2 at pH buffer 7.0 in the presence of 0, 27, 55, and 109 μM methimazole (shown in FIG. 9, section A, traces a-d, respectively). Traces c and d also indicate by arrow when additional LPO is added to the system. […] In contrast to effects exerted by AscH^− or SCN^−, methimazole-dependent inhibition is permanent and is probably due to inactivation of the enzyme, since a second dose of LPO reactivates the process (FIG. 9, section A, trace c).
Dapsone, an anti-inflammatory and anti-leprotic agent, is a potent inhibitor of LPO and MPO. See, e.g., Kettle et al. (1991) Biochem. Pharmacol. 41(10):1485-1492; Bozeman et al. (1992) Biochem. Pharmacol. 44(2):553-563. 97 μM of salbutamol is reacted with 65 nM LPO, 3.4 mM NaNO2, and 4 mM H2O2 at pH buffer 7.0 in the presence of 0, 2.5, 5, 10, 50, and 100 μM dapsone (shown in FIG. 10, traces a-f, respectively). The arrows in traces d and e of FIG. 10 indicate where additional LPO is added to the system. […] Dapsone at 50 μM inhibited nitration by approximately 86%. Given the high concentrations of NaNO2 and H2O2 used in this system, dapsone appears to be a potent blocker of nitration.
The extent of nitration is expressed as a change in ΔA410 versus control (dapsone omitted) taken as 100% after 10, 30, and 60 minute reactions for LPO, MPO, and EPO nitrating systems, respectively. Results equal the means±SE of at least two measurements. In the LPO system, 100 μM of salbutamol, 3.4 mM of NaNO2, 4 mM of H2O2, and 65 nM of LPO is used. In the MPO system, 50 μM of salbutamol, 5.0 mM of NaNO2, 5 mM of H2O2, and 0.2 U/mL of MPO is used. In the EPO system, 50 μM of salbutamol, 5 mM of NaNO2, 2 mM of H2O2, and 0.075 U/mL of EPO is used. All reactions were carried out in pH 7.0 phosphate buffer containing DMSO (5% v/v). The term “nitrophenols” includes nitrosalbutamol (N-Sal) and salbutamol-derived nitrophenol (N—ArOH).

LPO [2] = target: T1, LPO; assay: EPR of MNP adducts with radicals from β2-agonists generated by LPO/H2O2; assay type: biochemical, bovine; conditions: pH 8.0
Method: Formation of free radicals from β2-agonists is studied in samples prepared in 100 mM phosphate buffer (pH 7.0 and 8.0)/DTPA (0.2 mM) (total volume 250 μL) containing MNP, MPO (or LPO) and the agonists. The reaction is initiated by the addition of H2O2 as the last component. In experiments in which H2O2 was generated using glucose (1 mM) and glucose oxidase (3.9 μg/mL), glucose oxidase is added as a last component. The sample is transferred to a flat aqueous EPR cell and recording is started 1 minute after initiation of the reaction. Typically, spectra of MNP adducts are recorded using microwave power 20 mW, modulation amplitude 0.1 mT, receiver gain 2×10^5, conversion time 40.96 ms, time constant 81.92 ms, and scan rate of 10 mT/41.92 s. EPR spectra constitute an average of 5 scans and represent results of typical experiments. Unless stated otherwise, direct EPR measurements (spin traps omitted) of free radicals derived from β2-agonists are performed using conditions similar to those for the detection of MNP adducts. EPR spectra are simulated using WINSIM software developed at NIEHS/NIH (RTP, NC).
The effect of methimazole and dapsone on the formation of free radicals from drugs is studied in phosphate buffers (pH 7.0 and 8.0) containing DTPA (0.2 mM) and MNP (10 mM in dimers). Oxidation is carried out by MPO (0.43 units/mL)/H2O2 (37 μM) and LPO (0.39 μM)/glucose (1 mM)/glucose oxidase (0.8 μg/mL). […]
Table 3, below, summarizes the effects of dapsone and methimazole on EPR spectra of MNP adducts with radicals from fenoterol and terbutaline generated by MPO/H2O2 and LPO/H2O2 systems at a pH of 8.0. Concentrations of MNP spin adducts were calculated as second integrals of the low-field component of the respective spectra and are expressed as % of control samples (no additives). Results equal the means±SE of at least two measurements.
. […] This is consistent with the known inhibitory action of both methimazole and dapsone on LPO activity and only methimazole on MPO activity. Thomas et al. (1994) J. Dent. Res. 73(2):544-55. Results obtained at pH 7.0 qualitatively agree with those at pH 8.0.

| Compound | Nitrophenols, (%) LPO (LPO [1]; dapsone 2.5 μM, 100 μM salbutamol) [%] | Nitrophenols, (%) LPO (LPO [1]; dapsone 5.0 μM, 100 μM salbutamol) [%] | Nitrophenols, (%) LPO (LPO [1]; dapsone 10.0 μM, 100 μM salbutamol) [%] | inhibition at 50 µM (LPO [1]; dapsone 50 μM, 97 μM salbutamol, 65 nM LPO, 3.4 mM NaNO2, 4 mM H2O2, pH 7.0) [%] | Nitrophenols, (%) LPO (LPO [1]; dapsone 50.0 μM, 100 μM salbutamol) [%] | Concentration of MNP spin adducts, Fenoterol, +LPO + H2O2, % of control (LPO [2]; fenoterol 0.047 mM, inhibitor 1 mM, reagent H2O2 37 μM) | remaining activity at 1000 µM (LPO [2]; fenoterol 0.047 mM, inhibitor 1 mM, reagent H2O2 37 μM, read-out: Concentration of MNP spin adducts, Fenoterol, +LPO + H2O2, % of control) [%] | Concentration of MNP spin adducts, Terbutaline, +LPO + H2O2, % of control (LPO [2]; terbutaline 0.047 mM, inhibitor 1 mM, reagent H2O2 37 μM) | remaining activity at 1000 µM (LPO [2]; terbutaline 0.047 mM, inhibitor 1 mM, reagent H2O2 37 μM, read-out: Concentration of MNP spin adducts, Terbutaline, +LPO + H2O2, % of control) [%] | Nitration of salbutamol by LPO/H2O2/NO2− (A410 versus time) (LPO [1]; methimazole close to 100 μM (109 μM), 100 μM salbutamol, 73 nM LPO, 3.5 mM NaNO2, 4 mM H2O2, pH 7.0) | Concentration of MNP spin adducts, Fenoterol, +LPO + H2O2, % of control (LPO [2]; fenoterol 0.47 mM, inhibitor 0.86 mM, H2O2 from glucose 1 mM/glucose oxidase 0.8 μg/mL) | remaining activity at 860 µM (LPO [2]; fenoterol 0.47 mM, inhibitor 0.86 mM, H2O2 from glucose 1 mM/glucose oxidase 0.8 μg/mL, read-out: Concentration of MNP spin adducts, Fenoterol, +LPO + H2O2, % of control) [%] | Concentration of MNP spin adducts, Terbutaline, +LPO + H2O2, % of control (LPO [2]; terbutaline 0.47 mM, inhibitor 0.86 mM, H2O2 from glucose 1 mM/glucose oxidase 0.8 μg/mL) | remaining activity at 860 µM (LPO [2]; terbutaline 0.47 mM, inhibitor 0.86 mM, H2O2 from glucose 1 mM/glucose oxidase 0.8 μg/mL, read-out: Concentration of MNP spin adducts, Terbutaline, +LPO + H2O2, % of control) [%] |
| --- | --- | --- | --- | --- | --- | --- | --- | --- | --- | --- | --- | --- | --- | --- |
| Nc1ccc(S(=O)(=O)c2ccc(N)cc2)cc1 [Dapsone, diamino-diphenyl sulfone] | 72.8 ± 2.0 | 58.4 ± 1.4 | 45.7 ± 2.0 | ~86 | 14.0 ± 2.7 | markedly inhibit | 13.9 ± 0.6 | markedly inhibit | 54.6 ± 20 |  |  |  |  |  |
| Cn1cc[nH]c1=S [Methimazole, 1-methyl-3H-imidazole-2-thione] |  |  |  |  |  |  |  |  |  | completely prevents | markedly inhibit | 26.9 ± 8.2 | markedly inhibit | 33.9 |
